Holding throughout (format): cell-based, human
For test [1], the system named is HLA-A*24:02-expressing target cells (TISI cells).
For test [2] the test system is unchanged. The source holds these as a separate data set.
Test [3] relates to HLA-A*02:01-expressing target cells (T2 cells).
Test [4] has the same test system. The source holds these as a separate data set.
The subject of a further test is TISI cells.
Test [5] concerns CD8-positive T cells in PBMCs of individuals who had recovered from COVID-19 (HLA-A*24:02-positive).
Test [6] has as its system CD8-positive T cells in PBMCs of individuals not infected with SARS-CoV-2 (HLA-A*24:02-positive).
Where [7] appears, read: HLA-A*24:02-restricted, peptide-pulsed TISI cells vs TISI cells not pulsed.
Where [8] appears, read: HLA-A*24:02-restricted CTL lines, peptide-pulsed TISI cells.
The mark [9] stands for this setting: HLA-A*02:01-restricted CTL lines, peptide-pulsed T2 cells.
[10] abbreviates: HLA-A*02:01-restricted, peptide-pulsed T2 cells vs T2 cells not pulsed.
The mark [11] stands for this setting: CTL clones from limiting dilution, TISI target cells.

“Also recorded” adds a separate entry of the source. Read-outs that look alike come from different tables or passages of the source.

In the case of “YDYLVSTQEF (an amino acid sequence derived from ORF1ab polyprotein of SARS-CoV-2) [Peptide 6, SARS-CoV-2 ORF1ab-derived 10mer peptide, position 3811]”, the “Peptide-specific IFN-γ production (ELISPOT)” value in test [1] (setting [7]) was “peptide-specific IFN-γ production was not found; also recorded: no peptide-specific IFN-γ production was observed”.
For the sequence “TAYANSVFNI (an amino acid sequence derived from ORF1ab polyprotein of SARS-CoV-2) [Peptide 2, SARS-CoV-2 ORF1ab-derived 10mer peptide, position 5079]”, the “IFN-γ production by CTL lines (ELISA)” value in test [2] (setting [8]) and in test [3] (setting [9]) was “produced IFN-γ in a peptide-specific manner” throughout. Further, the “Peptide-specific IFN-γ production (ELISPOT)” value in test [4] (setting [10]) and in test [1] (setting [7]) was “peptide-specific IFN-γ production was observed” in each case. In addition, the “Peptide-specific IFN-γ production by CTL clones (ELISA)” value in the test with TISI cells (setting [11]) was “showed IFN-γ production specific to”.
As for “YAYLRKHFSM (an amino acid sequence derived from ORF1ab polyprotein of SARS-CoV-2) [Peptide 15, SARS-CoV-2 ORF1ab-derived 10mer peptide, position 5138]”, the entries for the “Peptide-specific IFN-γ production (ELISPOT)” value in test [4] (setting [10]) and in test [1] (setting [7]) were “no peptide-specific IFN-γ production was observed” and “peptide-specific IFN-γ production was observed”, respectively.
As to “PFAMQMAYRF (an amino acid sequence derived from surface glycoprotein of SARS-CoV-2) [Peptide 5, SARS-CoV-2 S protein-derived 10mer peptide, position 897]”, the “Detection of tetramer-positive CD8-positive T cells recognizing the peptide” value (shortened to “Detection”) in test [5] was “detected”. The “IFN-γ production by CTL lines (ELISA)” value in test [2] (setting [8]) is listed as “produced IFN-γ in a peptide-specific manner”. Moreover, the “Peptide-specific IFN-γ production (ELISPOT)” value in test [4] (setting [10]) is on record as “no peptide-specific IFN-γ production was observed”; in test [1] (setting [7]), “peptide-specific IFN-γ production was observed”.
Consider RYKLEGYAF [Peptide 9], for which, in test [5], the “Detection” value was “detected”. Also, the “IFN-γ production by CTL lines (ELISA)” value in test [2] is “produced IFN-γ in a peptide-specific manner”. The “Peptide-specific IFN-γ production (ELISPOT)” value in test [4] is listed as “no peptide-specific IFN-γ production was observed”; in test [1], “peptide-specific IFN-γ production was observed”. The “Peptide-specific IFN-γ production by CTL clones (ELISA)” value with TISI cells is “showed IFN-γ production specific to”.
In the case of LWLLWPVTL [Peptide 13], the “Detection” value in test [5] and in test [6] was “detected” each time. Besides, the “IFN-γ production by CTL lines (ELISA)” value in test [2] and in test [3] was “produced IFN-γ in a peptide-specific manner” in each case. Also, the “Peptide-specific IFN-γ production (ELISPOT)” value in test [4] and in test [1] was “peptide-specific IFN-γ production was observed” throughout.
Regarding AYANSVFNI [Peptide 1], the “IFN-γ production by CTL lines (ELISA)” value in test [2] (setting [8]) and in test [3] (setting [9]) was “produced IFN-γ in a peptide-specific manner” each time. Besides, the “Detection” value in test [6] is “detected”. Moreover, the “Peptide-specific IFN-γ production (ELISPOT)” value in test [4] (setting [10]) and in test [1] (setting [7]) was “peptide-specific IFN-γ production was observed” throughout. The “Peptide-specific IFN-γ production by CTL clones (ELISA)” value with TISI cells (setting [11]) was “showed IFN-γ production specific to”.
With “FTYASALWEI (an amino acid sequence derived from ORF1ab polyprotein of SARS-CoV-2) [Peptide 10, SARS-CoV-2 ORF1ab-derived 10mer peptide, position 4089]”, the “Detection” value in test [5] is on record as “detected”. In addition, in test [2] (setting [8]), the “IFN-γ production by CTL lines (ELISA)” value is “produced IFN-γ in a peptide-specific manner”. Further, the “Peptide-specific IFN-γ production by CTL clones (ELISA)” value in the test with TISI cells (setting [11]) is reported as “showed IFN-γ production specific to”. In test [1] (setting [7]), the “Peptide-specific IFN-γ production (ELISPOT)” value is given as “peptide-specific IFN-γ production was observed”.
With RYFKYWDQTY [Peptide 12], the “Peptide-specific IFN-γ production (ELISPOT)” value in test [4] (setting [10]) and in test [1] (setting [7]) was “peptide-specific IFN-γ production was observed” in each case.
As to “VFMSEAKCW (an amino acid sequence derived from ORF1ab polyprotein of SARS-CoV-2) [Peptide 3, SARS-CoV-2 ORF1ab-derived 9mer peptide, position 5184]”, the entries for the “Peptide-specific IFN-γ production (ELISPOT)” value in test [4] (setting [10]) and in test [1] (setting [7]) were “no peptide-specific IFN-γ production was observed” and “peptide-specific IFN-γ production was observed”, respectively.
With SYSLFDMSKF [Peptide 11], the figures for the “Peptide-specific IFN-γ production (ELISPOT)” value in test [4] (setting [10]) and in test [1] (setting [7]) were “no peptide-specific IFN-γ production was observed” and “peptide-specific IFN-γ production was observed”, respectively.
As for TYASALWEI [Peptide 4], the “Detection” value in test [5] is recorded as “detected”. Moreover, the “IFN-γ production by CTL lines (ELISA)” value in test [2] is “produced IFN-γ in a peptide-specific manner”. Besides, the “Peptide-specific IFN-γ production (ELISPOT)” value in test [4] and in test [1] was “peptide-specific IFN-γ production was observed” in each case.
With “YYSQLMCQPI (an amino acid sequence derived from ORF1ab polyprotein of SARS-CoV-2) [Peptide 7, SARS-CoV-2 ORF1ab-derived 10mer peptide, position 2560]”, the “IFN-γ production by CTL lines (ELISA)” value in test [2] (setting [8]) is given as “produced IFN-γ in a peptide-specific manner”. In addition, the “Detection” value in test [6] is reported as “detected”. The “Peptide-specific IFN-γ production (ELISPOT)” value in test [4] (setting [10]) and in test [1] (setting [7]) was “peptide-specific IFN-γ production was observed” each time. The “Peptide-specific IFN-γ production by CTL clones (ELISA)” value in the test on TISI cells (setting [11]) is “showed IFN-γ production specific to”.

(Values after patent US20230357328A1, “SARS-CoV-2 PROTEIN-DERIVED PEPTIDE AND VACCINE CONTAINING SAME” (ONCOTHERAPY SCIENCE, INC., priority 2020, published 2023).)
